Measurements published in ChEMBL document CHEMBL1141293, “Cassane furanoditerpenoids from the seed kernels of Caesalpinia bonduc from Thailand” (J Nat Prod, 2007).
Activity calls are given as the source filed them. The calls are words filed in the database; no cut-off is given here.

Columns and labels:
KATO3 = test: Cytotoxicity against human KATO3 cells at 10 ug/ml by MTT assay; format: functional, cell-based
CHAGO = test: Cytotoxicity against human CHAGO cells at 10 ug/ml by MTT assay; format: functional, cell-based
Plasmodium falciparum [1] = test: Antimalarial activity against multidrug-resistant Plasmodium falciparum K1 by microculture radioisotope assay; format: functional, organism-based
BT-474 = test: Cytotoxicity against human BT474 cells at 10 ug/ml by MTT assay; format: functional, cell-based
SW-620 = test: Cytotoxicity against human SW620 cells at 10 ug/ml by MTT assay; format: functional, cell-based
HepG2 = test: Cytotoxicity against human HepG2 cells at 10 ug/ml by MTT assay; format: functional, cell-based
Plasmodium falciparum [2] = test: Antimalarial activity against multidrug-resistant Plasmodium falciparum K1 at 10 uM by microculture radioisotope assay; format: functional, organism-based

Row | SMILES | Activity (KATO3) | Activity (CHAGO) | IC50 (Plasmodium falciparum [1]) | Activity (BT-474) | Activity (SW-620) | Activity (HepG2) | Activity (Plasmodium falciparum [2])
1 | C=C1c2ccoc2C[C@H]2[C@H]1[C@@H](O)[C@H](OC(C)=O)[C@@]1(O)C(C)(C)CC[C@H](OC(C)=O)[C@]21C [BONDUCELLPIN G] | Not toxic | Not toxic | 3800 nM | Not toxic | Not toxic | Not toxic | –
2 | COC(=O)[C@@H]1c2ccoc2C[C@H]2[C@H]1[C@@H](OC(C)=O)[C@H](O)[C@@]1(O)C(C)(C)CCC(=O)[C@]21C [BONDUCELLPIN E] | Not toxic | Not toxic | 1600 nM | Not toxic | Not toxic | Not toxic | –
3 | C=C1c2ccoc2C[C@H]2[C@H]1[C@@H](OC(C)=O)[C@H](O)[C@@]1(O)C(C)(C)CCC(=O)[C@]21C [BONDUCELLPIN F] | Not toxic | Not toxic | 5800 nM | Not toxic | Not toxic | Not toxic | –
4 | C[C@H]1[C@@H](O)O[C@@H]2O[C@@]3(C)CC[C@H]4[C@H](C)CC[C@@H]1[C@@]24OO3 [ARTENIMOL] | – | – | 4 nM | – | – | – | –
5 | CC(=O)O[C@@H]1[C@@H]2[C@H](Cc3occc3[C@@]2(C)O)[C@@]2(C)C(=O)CCC(C)(C)[C@]2(O)[C@H]1OC(C)=O | Not toxic | Not toxic | – | Not toxic | Not toxic | Not toxic | inactive
